Source: ChEMBL document CHEMBL4402606, “Design and Characterization of the First Selective and Potent Mechanism-Based Inhibitor of Cytochrome P450 4Z1” (J Med Chem, 2020)

Assays:
Cytochrome P450 4Z1 [1] = target: T1, Cytochrome P450 4Z1 (Homo sapiens, UniProt Q86W10); assay: Inhibition of CYP4Z1 (unknown origin) in human HepG2 cell membranes transduced with lentiviral vector using luciferin-benzyl ether as substrate preincubated with NADPH for 30 mins followed by substrate addition and measured after 10 mins by P450-glo luciferase based luminescence assay
T1 sequence (Q86W10 whole entry): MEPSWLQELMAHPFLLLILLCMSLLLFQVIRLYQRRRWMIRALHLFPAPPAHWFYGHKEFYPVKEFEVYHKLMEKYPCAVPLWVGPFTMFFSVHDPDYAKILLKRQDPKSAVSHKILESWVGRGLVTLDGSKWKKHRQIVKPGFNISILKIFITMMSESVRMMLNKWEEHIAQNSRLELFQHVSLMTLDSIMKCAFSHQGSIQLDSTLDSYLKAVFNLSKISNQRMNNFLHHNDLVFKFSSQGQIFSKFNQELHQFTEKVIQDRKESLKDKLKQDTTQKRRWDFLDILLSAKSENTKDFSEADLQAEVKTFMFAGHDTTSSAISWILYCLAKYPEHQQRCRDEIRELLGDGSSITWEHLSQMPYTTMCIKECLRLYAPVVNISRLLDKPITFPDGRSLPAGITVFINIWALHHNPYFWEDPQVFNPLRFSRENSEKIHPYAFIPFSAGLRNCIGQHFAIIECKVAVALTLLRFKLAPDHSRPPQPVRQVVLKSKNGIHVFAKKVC

Cytochrome P450 4Z1 [2] = target: T1, Cytochrome P450 4Z1; assay: Inhibition of CYP4Z1 (unknown origin) in human HepG2 cell membranes transduced with lentiviral vector using luciferin-benzyl ether as substrate incubated for 5 mins followed by NADPH addition and measured after 20 mins by P450-glo luciferase based luminescence assay
Cytochrome P450 2C9 [3] = target: T2, Cytochrome P450 2C9 (Homo sapiens, UniProt P11712); assay: Inhibition of CYP2C9 in human pooled liver microsomes using tolbutamide as substrate after 10 mins by UPLC-MS/MS analysis; type: ADME
Cytochrome P450 2D6 [4] = target: T3, Cytochrome P450 2D6 (Homo sapiens, UniProt P10635); assay: Inhibition of CYP2D6 in human pooled liver microsomes using dextromethorphan as substrate after 10 mins by UPLC-MS/MS analysis; type: ADME
Cytochrome P450 1A2 [5] = target: T4, Cytochrome P450 1A2 (Homo sapiens, UniProt P05177); assay: Inhibition of CYP1A2 in human pooled liver microsomes using phenacetin as substrate after 10 mins by UPLC-MS/MS analysis; type: ADME
T4 sequence (P05177 whole entry): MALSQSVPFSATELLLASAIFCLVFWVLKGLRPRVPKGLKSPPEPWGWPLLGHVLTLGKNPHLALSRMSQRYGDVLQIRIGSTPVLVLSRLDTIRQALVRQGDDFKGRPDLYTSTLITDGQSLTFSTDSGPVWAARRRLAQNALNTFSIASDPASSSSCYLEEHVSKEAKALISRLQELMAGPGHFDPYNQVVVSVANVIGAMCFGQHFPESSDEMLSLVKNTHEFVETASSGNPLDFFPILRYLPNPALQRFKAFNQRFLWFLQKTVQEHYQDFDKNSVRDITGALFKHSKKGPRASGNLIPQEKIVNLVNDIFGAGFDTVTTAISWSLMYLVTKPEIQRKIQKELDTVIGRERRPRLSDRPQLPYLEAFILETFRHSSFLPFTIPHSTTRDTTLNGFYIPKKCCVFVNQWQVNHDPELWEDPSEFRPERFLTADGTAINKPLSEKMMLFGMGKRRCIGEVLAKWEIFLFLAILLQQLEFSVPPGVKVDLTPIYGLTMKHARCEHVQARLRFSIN

Cytochrome P450 2C19 [6] = target: T5, Cytochrome P450 2C19 (Homo sapiens, UniProt P33261); assay: Inhibition of CYP2C19 in human pooled liver microsomes using (S)-mephenytoin as substrate after 10 mins by UPLC-MS/MS analysis; type: ADME
Cytochrome P450 2C19 [7] = target: T5, Cytochrome P450 2C19; assay: Inhibition of CYP2C19 in human pooled liver microsomes using (S)-mephenytoin as substrate preincubated with NADPH for 30 mins followed by substrate addition and measured after 10 mins by UPLC-MS/MS analysis; type: ADME
Cytochrome P450 2C8 [8] = target: T6, Cytochrome P450 2C8 (Homo sapiens, UniProt P10632); assay: Inhibition of CYP2C8 in human pooled liver microsomes using amodiaquine as substrate after 10 mins by UPLC-MS/MS analysis; type: ADME
T6 sequence (P10632 whole entry): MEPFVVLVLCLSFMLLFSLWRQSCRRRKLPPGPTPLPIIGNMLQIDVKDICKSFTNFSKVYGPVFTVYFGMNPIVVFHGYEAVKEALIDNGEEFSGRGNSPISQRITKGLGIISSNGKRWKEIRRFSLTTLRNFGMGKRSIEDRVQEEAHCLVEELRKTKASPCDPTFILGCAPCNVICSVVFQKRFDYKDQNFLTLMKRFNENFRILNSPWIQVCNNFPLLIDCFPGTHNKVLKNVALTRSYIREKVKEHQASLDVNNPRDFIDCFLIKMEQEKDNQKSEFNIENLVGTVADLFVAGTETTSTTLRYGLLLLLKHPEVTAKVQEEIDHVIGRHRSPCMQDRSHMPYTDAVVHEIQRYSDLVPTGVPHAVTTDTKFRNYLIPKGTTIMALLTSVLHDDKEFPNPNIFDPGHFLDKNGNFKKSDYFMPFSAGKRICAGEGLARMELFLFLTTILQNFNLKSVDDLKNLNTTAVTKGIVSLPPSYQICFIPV

Cytochrome P450 1A2 [9] = target: T4, Cytochrome P450 1A2; assay: Inhibition of CYP1A2 in human pooled liver microsomes using phenacetin as substrate preincubated with NADPH for 30 mins followed by substrate addition and measured after 10 mins by UPLC-MS/MS analysis; type: ADME
Cytochrome P450 2C8 [10] = target: T6, Cytochrome P450 2C8; assay: Inhibition of CYP2C8 in human pooled liver microsomes using amodiaquine as substrate preincubated with NADPH for 30 mins followed by substrate addition and measured after 10 mins by UPLC-MS/MS analysis; type: ADME
CYP3A4/5 [11] = target: T7, CYP3A4/5 (Homo sapiens, UniProt P08684+P20815); assay: Inhibition of CYP3A4/5 in human pooled liver microsomes using midazolam as substrate preincubated with NADPH for 30 mins followed by substrate addition and measured after 10 mins by UPLC-MS/MS analysis; type: ADME; conditions: probe midazolam
Cytochrome P450 2D6 [12] = target: T3, Cytochrome P450 2D6; assay: Inhibition of CYP2D6 in human pooled liver microsomes using dextromethorphan as substrate preincubated with NADPH for 30 mins followed by substrate addition and measured after 10 mins by UPLC-MS/MS analysis; type: ADME
CYP3A4/5 [13] = target: T7, CYP3A4/5; assay: Inhibition of CYP3A4/5 in human pooled liver microsomes using midazolam as substrate after 10 mins by UPLC-MS/MS analysis; type: ADME; conditions: probe midazolam
Cytochrome P450 2C9 [14] = target: T2, Cytochrome P450 2C9; assay: Inhibition of CYP2C9 in human pooled liver microsomes using tolbutamide as substrate preincubated with NADPH for 30 mins followed by substrate addition and measured after 10 mins by UPLC-MS/MS analysis; type: ADME
HepG2 = assay: Cytotoxicity against human HepG2 cells at 3 uM after 24 hrs by CellTiter-Glo luminescent cell viability assay; type: cell-based; conditions: hepg2, 24 h
T47D = assay: Cytotoxicity against human T47D cells at 3 uM after 24 hrs by CellTiter-Glo luminescent cell viability assay; type: cell-based

T3 sequence (P10635 whole entry): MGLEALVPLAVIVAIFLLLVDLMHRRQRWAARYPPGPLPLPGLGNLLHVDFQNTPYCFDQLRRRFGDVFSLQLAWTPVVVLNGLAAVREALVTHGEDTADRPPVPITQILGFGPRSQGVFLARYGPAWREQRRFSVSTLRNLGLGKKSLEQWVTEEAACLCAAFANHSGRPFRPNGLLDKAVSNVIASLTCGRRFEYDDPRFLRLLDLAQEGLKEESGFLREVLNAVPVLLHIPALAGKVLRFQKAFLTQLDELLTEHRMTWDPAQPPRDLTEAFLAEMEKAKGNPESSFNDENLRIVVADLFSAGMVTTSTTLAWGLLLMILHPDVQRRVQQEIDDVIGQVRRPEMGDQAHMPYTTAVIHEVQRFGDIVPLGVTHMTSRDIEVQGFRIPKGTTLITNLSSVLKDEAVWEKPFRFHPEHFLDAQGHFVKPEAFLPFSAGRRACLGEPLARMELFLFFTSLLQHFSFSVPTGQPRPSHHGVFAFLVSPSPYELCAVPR
T5 sequence (P33261 whole entry): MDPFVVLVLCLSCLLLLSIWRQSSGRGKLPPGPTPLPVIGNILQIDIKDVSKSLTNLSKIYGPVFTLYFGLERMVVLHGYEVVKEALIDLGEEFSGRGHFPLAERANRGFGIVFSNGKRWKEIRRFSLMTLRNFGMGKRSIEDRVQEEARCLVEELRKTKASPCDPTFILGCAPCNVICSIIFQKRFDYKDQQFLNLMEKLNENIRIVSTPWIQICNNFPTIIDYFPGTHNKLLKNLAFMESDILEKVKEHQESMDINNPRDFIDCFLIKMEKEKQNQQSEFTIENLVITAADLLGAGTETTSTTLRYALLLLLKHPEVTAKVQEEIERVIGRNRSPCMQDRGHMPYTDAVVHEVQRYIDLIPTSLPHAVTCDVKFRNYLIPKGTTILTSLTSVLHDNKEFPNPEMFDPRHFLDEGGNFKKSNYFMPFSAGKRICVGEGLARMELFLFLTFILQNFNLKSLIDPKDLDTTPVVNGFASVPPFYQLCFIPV
T2 sequence (P11712 whole entry): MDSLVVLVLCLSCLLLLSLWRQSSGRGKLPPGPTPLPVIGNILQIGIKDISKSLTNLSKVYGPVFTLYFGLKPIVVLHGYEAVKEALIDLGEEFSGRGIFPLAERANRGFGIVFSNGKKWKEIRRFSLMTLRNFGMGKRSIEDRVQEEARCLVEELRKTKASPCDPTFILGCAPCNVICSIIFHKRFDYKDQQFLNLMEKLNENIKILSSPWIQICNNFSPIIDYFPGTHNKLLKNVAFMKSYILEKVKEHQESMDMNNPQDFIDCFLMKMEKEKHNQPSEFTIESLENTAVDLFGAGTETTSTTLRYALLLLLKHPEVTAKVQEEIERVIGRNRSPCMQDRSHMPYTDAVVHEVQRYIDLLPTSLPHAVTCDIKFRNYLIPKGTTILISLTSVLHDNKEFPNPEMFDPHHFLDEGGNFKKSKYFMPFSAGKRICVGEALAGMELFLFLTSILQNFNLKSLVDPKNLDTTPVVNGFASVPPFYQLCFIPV

Structure (SMILES) | IC50 (Cytochrome P450 4Z1 [1]) [µM] | IC50 (Cytochrome P450 4Z1 [2]) [µM] | IC50 (Cytochrome P450 2C9 [3]) [µM] | IC50 (Cytochrome P450 2D6 [4]) [µM] | IC50 (Cytochrome P450 1A2 [5]) [µM] | IC50 (Cytochrome P450 2C19 [6]) [µM] | IC50 (Cytochrome P450 2C19 [7]) [µM] | IC50 (Cytochrome P450 2C8 [8]) [µM] | IC50 (Cytochrome P450 1A2 [9]) [µM] | IC50 (Cytochrome P450 2C8 [10]) [µM] | IC50 at 10 min (CYP3A4/5 [11]) [µM] | IC50 (Cytochrome P450 2D6 [12]) [µM] | IC50 at 10 min (CYP3A4/5 [13]) [µM] | IC50 (Cytochrome P450 2C9 [14]) [µM] | Activity (HepG2) | Activity (T47D)
Nn1nnc2ccccc21 | 12 | 154 |  |  |  |  |  |  |  |  |  |  |  |  |  | 
O=C(O)CCCCCNn1nnc2ccccc21 |  |  | > 3000 | 2850 | 2790 | > 3000 | 1640 | 2310 | 228 | 954 | 766 | 1710 | 1310 | 1940 |  | 
O=C(O)CCCCCCCNn1nnc2ccccc21 |  |  | 343 | 826 | 614 | 759 | 246 | 306 | 55 | 84 | 128 | 299 | 244 | 330 | Non-Toxic | Non-Toxic
